Read-outs that look alike come from different tables or passages of the source.
Tests used:
[1] = test system: corn plants (variety NK OCTET); test: Reduced plant water use in corn (foliar spray, repeated weighing of pots); type: in vivo; details: Zea mays, corn plants sprayed at 500 μM, average of 6 pots
Procedure: Compounds were tested for their effect on reducing plant water use as follows. The compounds were applied by foliar spray to 12 day old corn plants (variety NK OCTET) grown in controlled environment plant growth chambers. All compounds were applied using an emulsifiable concentrate (EC) formulation that was diluted to the desired concentrations with water containing 0.4% of the adjuvant rape seed methyl ester. Plant water use during the day was assessed by repeated weighing of the pots in which the plants were grown before and after application of the compounds at the indicated times (expressed in days after application (DAA)). The water use data before application was used to correct any differences in water use arising due to non-treatment effects (e.g. due to differences in plant size). The untransformed water use values were subjected to an analysis of covariance, fitting the effect of treatment and using the baseline water use 1 day before application as a covariate. Application of the chemicals (0 DAA) takes place approximately between 08:00 and 09:30 a.m. WU is measured within day time (chamber light is on 06:00 to 20:00) at these timepoints: 0 DAA a.m. (10:30-12:50), 0 DAA p.m. (14:00-19:50), 1 DAA a.m. (07:30-12:50), 1 DAA p.m. (14:00-19:50), 2 DAA a.m. (07:30-12:50) and 2 DAA p.m. (14:00-19:50). The cumulative total WU (0-2.5 DAA) is calculated by summing the WU data mentioned above.

[2] = test system: soybean plants (variety S20-G7); test: Reduced plant water use in soybean (foliar spray, repeated weighing of pots); type: in vivo; details: Glycine max, foliar, Table B1, sprayed at 500 μM, vs negative control
Outline: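 Compounds in blank EC formulation diluted in water with EXTRAVON 1 g/20 L, foliar-sprayed on 12-day-old soybean in growth chambers. Water use from repeated pot weighing at a.m./p.m. periods over 0-2 DAA, summed to cumulative 0-2.5 DAA; ANCOVA with pre-application baseline covariate, relative to blank-formulation control.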

[3] = 0 h, water use during day time vs negative control, 0 DAA a.m. (10:30-12:50), read-out: % WU 0 DAA AM
[4] = 0 h, water use during day time vs negative control, 0 DAA p.m. (14:00-19:50), read-out: % WU 0DAA PM
[5] = 24 h, water use during day time vs negative control, 1 DAA a.m. (07:30-12:50), read-out: % WU 1DAA AM
[6] = 24 h, water use during day time vs negative control, 1 DAA p.m. (14:00-19:50), read-out: % WU 1DAA PM
[7] = 48 h, water use during day time vs negative control, 2 DAA a.m. (07:30-12:50), read-out: % WU 2 DAA AM
[8] = 48 h, water use during day time vs negative control, 2 DAA p.m. (14:00-19:50), read-out: % WU 2 DAA PM
[9] = 60 h, cumulative total water use 0-2.5 DAA (sum of the time points) vs negative control, read-out: % WU Total 0 to 2.5 DAA
[10] = 0 h, 0 DAA a.m. (10:30-12:50), read-out: % WU 0 DAA AM
[11] = 24 h, 1 DAA a.m. (7:30-12:50), read-out: % WU 1DAA AM
[12] = 24 h, 1 DAA p.m. (14:00-19:50), read-out: % WU 1DAA PM
[13] = 48 h, 2 DAA a.m. (07:30-12:50), read-out: % WU 2 DAA AM
[14] = 48 h, 2 DAA p.m. (14:00-19:50), read-out: % WU 2 DAA PM
[15] = 60 h, cumulative total WU (0-2.5 DAA), read-out: % WU Total 0 to 2.5 DAA

SMILES	change in vivo at 500 µM [1, 3] [%]	change in vivo at 500 µM [1, 4] [%]	change in vivo at 500 µM [1, 5] [%]	change in vivo at 500 µM [1, 6] [%]	change in vivo at 500 µM [1, 7] [%]	change in vivo at 500 µM [1, 8] [%]	change in vivo at 500 µM [1, 9] [%]	melting point [°C]	change in vivo at 500 µM [2, 10] [%]	change in vivo at 500 µM [2, 11] [%]	change in vivo at 500 µM [2, 12] [%]	change in vivo at 500 µM [2, 13] [%]	change in vivo at 500 µM [2, 14] [%]	change in vivo at 500 µM [2, 15] [%]
CCN1C(=O)CCc2cc(CNS(=O)(=O)c3ccc(C(F)(F)F)cc3)ccc21 [Compound 2.015, N-[(1-ethyl-2-oxo-3,4-dihydroquinolin-6-yl)methyl]-4-(trifluoromethyl)benzenesulfonamide]	-8.9	-3.4	-4	-2.6	-1.9	-1	-2.9	180 to 181	–	–	–	–	–	–
CCN1C(=O)CCc2cc(CNS(=O)(=O)/C=C/c3ccccc3)ccc21 [Compound 2.051, (E)-N-[(1-ethyl-2-oxo-3,4-dihydroquinolin-6-yl)methyl]-2-phenyl-ethenesulfonamide]	-13.2	-8.5	-10.7	-8.6	-8.7	-6.5	-9.1	134 to 137	–	–	–	–	–	–
CCN1C(=O)CCc2cc(CNS(=O)(=O)/C=C/c3cccc(Cl)c3)ccc21 [Compound 2.069, (E)-2-(3-chlorophenyl)-N-[(1-ethyl-2-oxo-3,4-dihydroquinolin-6-yl)methyl]ethenesulfonamide]	-6.5	-3.5	-3.3	-3.7	-2.1	-1.9	-3.2	149 to 151	–	–	–	–	–	–
CCN1C(=O)CCc2cc(CNS(=O)(=O)/C=C/c3cccc(Br)c3)ccc21 [Compound 2.070, (E)-2-(3-bromophenyl)-N-[(1-ethyl-2-oxo-3,4-dihydroquinolin-6-yl)methyl]ethenesulfonamide]	-8.1	-4.1	-6.1	-5.5	-4.8	-3.8	-5	144 to 147	–	–	–	–	–	–
CCCN1C(=O)CCc2cc(CNS(=O)(=O)c3ccc(Cl)cc3)ccc21 [Compound 3.004, 4-chloro-N-[(2-oxo-1-propyl-3,4-dihydroquinolin-6-yl)methyl]benzenesulfonamide]	-17.3	-12.5	-14.1	-12.9	-11.8	-10.7	-12.8	138 to 139	–	–	–	–	–	–
CCCN1C(=O)CCc2cc(CNS(=O)(=O)c3ccccc3Br)ccc21 [Compound 3.017, 2-bromo-N-[(2-oxo-1-propyl-3,4-dihydroquinolin-6-yl)methyl]benzenesulfonamide]	-5.8	-3.1	-3.1	-2.5	-1.8	-2.1	-2.7	157 to 159	–	–	–	–	–	–
CCCN1C(=O)CCc2cc(CNS(=O)(=O)/C=C/c3ccccc3)ccc21 [Compound 3.051, (E)-N-[(2-oxo-1-propyl-3,4-dihydroquinolin-6-yl)methyl]-2-phenyl-ethenesulfonamide]	-11.2	-6.4	-8.1	-5.5	-5.4	-4.3	-6.2	165 to 168	–	–	–	–	–	–
CCCN1C(=O)CCc2cc(CNS(=O)(=O)/C=C/c3ccc(Br)cc3)ccc21 [Compound 3.052, (E)-2-(4-bromophenyl)-N-[(2-oxo-1-propyl-3,4-dihydroquinolin-6-yl)methyl]ethenesulfonamide]	-9.6	-4.6	-4.5	-4.5	-2.2	-2.5	-4.1	150 to 152	–	–	–	–	–	–
CCCN1C(=O)CCc2cc(CNS(=O)(=O)/C=C/c3cccc(Cl)c3)ccc21 [Compound 3.069, (E)-2-(3-chlorophenyl)-N-[(2-oxo-1-propyl-3,4-dihydroquinolin-6-yl)methyl]ethenesulfonamide]	-8.1	-4.1	-6.1	-5.5	-4.8	-3.8	-5	129 to 133	–	–	–	–	–	–
CCCN1C(=O)CCc2cc(CNS(=O)(=O)c3ccc(Cl)s3)ccc21 [Compound 3.073, 5-chloro-N-[(2-oxo-1-propyl-3,4-dihydroquinolin-6-yl)methyl]thiophene-2-sulfonamide]	–	–	–	–	–	–	–	144 to 147	-44.6	-54.9	-52.1	-53.3	-48.7	-51
CCCN1C(=O)CCc2cc(CNS(=O)(=O)c3cccc4ccccc34)ccc21 [Compound 3.074, N-[(2-oxo-1-propyl-3,4-dihydroquinolin-6-yl)methyl]naphthalene-1-sulfonamide]	–	–	–	–	–	–	–	176 to 179	-8.6	0	1	-1.5	0	-1.4
CCCn1c(=O)ccc2cc(CNS(=O)(=O)c3ccccc3)ccc21 [Compound 7.001, N-[(2-oxo-1-propyl-6-quinolyl)methyl]benzenesulfonamide]	–	–	–	–	–	–	–	204 to 206	-17.1	-9.1	-6.9	-6.9	-2.5	-8.8
